This note sets out measurements from patent US7026296B2, “Methods of treating dry eye disorders” (Alcon, Inc., priority 2002, dated 2006).

For assay [1], the system named is IL-6 production from CEPI-17 cells. In words: Inhibition of hyperosmolarity-induced IL-6 production from human corneal epithelial cells in vitro. In kind it is cell-based. The following applies: Corneal epithelial cell, 1 hour pre-treatment, hypertonic KGM-HC (additional 80 mM NaCl) 6 hours, ELISA, normalized by dsDNA. As to the method: (§1) Inhibition of Hyperosmolarity-Induced Cytokine Production from Human Corneal Epithelial Cells in vitro.
(§2) The ocular tear film in dry eye is abnormally hyperosmolar, which is irritating to ocular surface cells. Treatment of human conjunctival epithelial cells with a hypertonic media elicits the production of pro-inflammatory cytokines. A selective JNK inhibitor, anthra[1,9-cd]pyrazol-6(2H)-one, was evaluated for inhibition of hyperosmolarity-induced cytokine secretion from the transformed human corneal epithelial cell line, CEPI-17.CEPI-17 cells were grown in complete isotonic Keratinocyte Growth Medium (iso KGM) and plated in 48-well plates in iso KGM without hydrocortisone (iso KGM-HC). When the cells reached confluence, they were pre-treated for 1 hour with the compound at the indicated concentration in iso KGM-HC. The cells were then stimulated by hypertonic KGM-HC for 6 hours (additional 80 mM NaCl added in iso KGM-HC) in the presence of the compound. Aliquots of the supernatants were assayed for IL-6,IL-8 by ELISA. Cytokine release was normalized by the amount of double stranded DNA (dsDNA) extracted from the cells. Percent inhibition of cytokine production was calculated by comparison with cytokine levels in vehicle-treated cells.
In general terms: In an ELISA, binding on a coated surface is turned into a signal by an enzyme label.

Assay [2] has as its system IL-8 production from CEPI-17 cells. The assay is described as follows: Inhibition of hyperosmolarity-induced IL-8 production from human corneal epithelial cells in vitro. In kind it is cell-based. The following applies: Corneal epithelial cell, 1 hour pre-treatment, hypertonic KGM-HC (additional 80 mM NaCl) 6 hours, ELISA, normalized by dsDNA. The procedure: as §1, §2

`O=C1c2ccccc2-c2n[nH]c3cccc1c23` [SP-600125, anthra[1,9-cd]pyrazol-6(2H)-one]: the IC50 in assay [1] came to 12.6 µM; in assay [2], 3.7 µM.

Broadly, the IC50 is the concentration needed to halve the response being measured.
